“Also recorded” adds a separate entry of the source.

Experiment [1] has as its system KEAP1-mutant NSCLC cells. Put plainly: Colony formation in soft agar, KEAP1-mutant NSCLC cells. As to conditions: 5 μM. Format: cell-based, human. The source says:
Based on its in situ activity (FIG. 6D and FIG. 12A, 12G) and selectivity (FIGS. 6A, 6B), BPK-29 was chosen for additional biological studies. […] Exogenous expression of […] the growth inhibition caused by BPK-29.

The test system of experiment [2] is CRY1 protein content. Put plainly: CRY1 protein content by immunoblotting in H460 cells. As to conditions: 9 h. The experiment is classed as cell-based, human. As for the experimental part:
FIG. 13A-FIG. 13E illustrate characterization of NR0B1 ligands in Keap1-mutant NSCLC cells. […] Top: Heat map depicting changes in gene expression between H460 cells expressing shNRF2, shNR0B1 or a control (shGFP) and those treated with vehicle (DMSO), BPK-29 or BPK-9 (30 μM, 12 h). Expression for each condition was first normalized to appropriate controls (shGFP or DMSO) and then normalized by row. Bottom: Overlap between gene sets regulated in BPK-29-treated vs shNR0B1 H460 cells. Gene set enrichment analysis (GSEA) was applied to all genes that were differentially expressed between shNR0B1-H460 cells and shGFP-H460 cells or between H460 cells treated with BPK-29 or DMSO. Genes were ranked based on their FDR. […] Gene expression changes for CRY1, DEPDC1, and CPLX2 were determined by qPCR and data represents mean values+SD (n=4-10). […] Gene expression changes for Cry1, DEPDC1, and CPLX2 were determined by qPCR and data represents mean values+SD (n=4-6). […] Protein expression was analyzed by immunoblotting. […] Top: H460 cells were treated with cycloheximide (100 μg/mL) for the indicated time points and NR0B1 protein content assessed by immunoblotting. […] NR0B1 protein content was determined following cycloheximide treatment and data were fit into a one-phase exponential decay model. […]
Background: A western blot detects proteins with antibodies after separation by electrophoresis.

Experiment [3] has as its target T1, NR0B1-SNW1 interaction (Homo sapiens, UniProt P51843).
T1 construct: endogenous in cells; host or cells: NR0B1: H2122 cell lysate
T1 sequence (P51843 1-470): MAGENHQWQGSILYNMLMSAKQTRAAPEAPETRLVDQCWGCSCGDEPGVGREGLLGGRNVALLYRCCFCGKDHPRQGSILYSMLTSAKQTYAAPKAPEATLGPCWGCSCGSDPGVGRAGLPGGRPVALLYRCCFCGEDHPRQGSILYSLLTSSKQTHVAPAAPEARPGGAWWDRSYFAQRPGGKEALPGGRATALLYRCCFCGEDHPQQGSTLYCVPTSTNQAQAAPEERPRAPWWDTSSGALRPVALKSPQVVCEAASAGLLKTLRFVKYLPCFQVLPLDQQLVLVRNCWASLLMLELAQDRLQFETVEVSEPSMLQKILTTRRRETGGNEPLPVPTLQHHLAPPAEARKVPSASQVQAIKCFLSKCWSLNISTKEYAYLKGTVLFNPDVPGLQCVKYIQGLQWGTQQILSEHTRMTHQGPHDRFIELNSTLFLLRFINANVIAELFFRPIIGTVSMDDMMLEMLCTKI
In words: In vitro binding assay: NR0B1 in H2122 lysate binding to immobilized FLAG-SNW1. As to conditions: for IC50: in vitro, read-out: IC50, inhibition of the NR0B1-SNW1 interaction. The method, then: H2122 clarified cell lysate (100 μL, 1 mg ml^−1) in IP-buffer were incubated with the indicated compounds or vehicle (DMSO) for 3 hours at 4° C. with rotation. Following treatment, 3 volumes of IP-buffer was added along with immobilized FLAG-SNW1 beads (30 μL, 50:50 slurry), which was incubated for an additional hour at 4° C. Beads were washed three times with IP-buffer supplemented with 500 mM NaCl. Immunoprecipitated proteins were resolved by SDS-PAGE and analyzed by immunoblotting. NR0B1 and HA-NR0B1 levels were determined by using the NR0B1 antibody (Cell Signaling). IC50 curves were determined using Prism 6 (Graphpad) software, with maximum and minimum values set at 100% NR0B1 bound 0% NR0B1 bound respectively.
Statistical analysis was preformed using GraphPad Prism version 6 or 7 for Mac, GraphPad Software, La Jolla Calif. USA, or the R statistical programming language. Inhibition curves of the NR0B1-SNW1 interactions by NR0B1-ligand are fit as using log(inhibitor) vs % normalized remaining of NR0B1-SNW1 interaction and data points are plotted as the mean±SD (n=2-5 per group). NR0B1 half-life was calculated from a one-phase exponential decay curve plotted as mean±SD (4-10 per group). Statistical significance was defined as p<0.05 and determined by 2-tailed Student's t-test (FIG. 1I, FIG. 3B), two-way Anova with Bonferroni post-test analysis (FIG. 1J) or correlation analysis using Pearson product-moment correlation coefficient (FIG. 4B, FIG. 10G).
Next, a chemical probe targeting C274 of NR0B1 was developed. Using an in vitro binding assay (FIG. 5B), an ˜80-member library of cysteine-reactive electrophilic compounds was screened at 50 μM for blockade of interactions between endogenous NR0B1 and recombinant FLAG-SNW1 in cell lysates (FIG. 5C). Among the hits (>50% blockade) were a series of N-disubstituted chloroacetamides (CAs), including BPK-26 (FIGS. 5D, 5E), that were selected for further investigation. […] Both BPK-26 and BPK-29 inhibited the NR0B1-SNW1 interaction with IC50 values between 10-20 μM in vitro (FIG. 11C).

As for `O=C(c1ccc(N2CCOCC2)cc1)N1CCC(CN(C(=O)CCl)c2cncnc2)CC1` [BPK-9, 2-chloro-N-((1-(4-morpholinobenzoyl)piperidin-4-yl)methyl)-N-(pyrimidin-5-yl)acetamide], in experiment [1], the “colony formation in soft agar” value was “much less of an effect”. For the same compound, the CRY1 protein content entry in experiment [2] is “not observed”. Moreover, the “inhibition of the NR0B1-SNW1 interaction” value in experiment [3] (tested concentration range of 1-50 μM) is recorded as “did not inhibit”.

Broadly, the IC50 is the concentration that inhibits the measured activity by half. `O=C(c1ccc(N2CCOCC2)cc1)N1CCCC(N(Cc2ccccc2)C(=O)CCl)CC1` (stereo not drawn) [BPK-29, N-benzyl-2-chloro-N-(1-(4-morpholinobenzoyl)azepan-4-yl)acetamide]: the “colony formation in soft agar” value in experiment [1] was “blocked colony formation”. Also, in experiment [2], the CRY1 protein content entry is listed as “reduces CRY1 protein content; also recorded: substantial reduction in CRY1 protein content”. For the same compound, the “relative potency for inhibition of FLAG-SNW1 binding to NR0B1 (structure-activity relationship)” value in experiment [3] (compounds at 50 μM) is “the most potent analogue; also recorded: recovered potency”. The IC50 in experiment [3] was in the range of 10 to 20 µM.

Turning to `O=C(CCl)N(Cc1cccc(Cl)c1F)c1ccc(Cl)nc1` [BPK-26, 2-chloro-N-(3-chloro-2-fluorobenzyl)-N-(6-chloropyridin-3-yl)acetamide], the half-inhibitory concentration (IC50) in experiment [3] lay within 10 to 20 µM. Besides, the “blockade of interactions between endogenous NR0B1 and recombinant FLAG-SNW1” value in experiment [3] (screened at 50 μM in cell lysates) was greater than 50%.
